Reference: patent EP0230023B1, “Pharmaceutical compositions for the enhancement of wound healing” (MARION MERRELL DOW INC., priority 1985, dated 1987)

Tests used:
[1] = test system: granulation tissue; assay: Subcutaneous Ivalon sponge implantation, histological analysis of granulation tissue formation; assay type: in vivo, Sprague-Dawley rats; conditions: score on the 0-4 scale; tested in a similar manner to collagen/sucrose octasulfate; potassium salts
Description: By means of subcutaneous implantation of Ivalon sponges the phase of granulation tissue formation in the repair process can be evaluated. Following a vigorous cleanup procedure the sponge material evokes only minimal inflammatory response. Sterile sponges prepared as set forth in Example 12 were injected with a 50 µl suspension of collagen/sucrose octasulfate suspension prepared as in Example 12. […] The sponges were surgically implanted into 350-500 g, male Sprague-Dawley rats. Before the implantation procedure three rats were anesthetized and their dorsal surfaces shaved and wiped with Predodyne (West Chemical Products, Lynbrook, N.Y.). Six 6 mm incisions were cut in groups of two (one on each side of the vertebral column rostrally, centrally and caudally), spaced equi-distant from each other between the pectoral and pelvic girdles on the dorsal surface. At each incision a pocket was made between the panniculus carnosus and the dermis and two sponges inserted into it, one rostrally and the other caudally; a total of 12 sponges were thus implanted in each animal. The position of each test preparation was alternated between the rostral, central and caudal positions to control the variation due to anatomical location. The incisions were closed with 11-mm Michel wound clips (Propper, Long Island City, N.Y.). Seven days following implantation the animals were sacrificed and the sponges surgically removed with their adhered connective tissue capsules. Controls, sponges injected with either PBS or collagen only were treated in a similar manner. In all, approximately 120 sponges per group were used in the study and randomly selected for biochemical and histologic analysis. The sponges were fixed in formalin and embedded in either plastic or Paraplast following dehydration. Sections were stained with hemotocylin and eosin, trichrome, silver or PAS. […] Mesenchymal cell infiltration was also scored on a predetermined scale from 0-4. […] Although the whole sponge area was used for analysis we noted that the most striking differences between the various treatments were evident in the center of the sponge. Therefore, the histologic appearance of the central zone was selected for presentation.

[2] = test system: granulation tissue; assay: as above; assay type: in vivo, Sprague-Dawley rats; conditions: no collagen

For `O=S(=O)([O-])OC[C@H]1O[C@@](COS(=O)(=O)[O-])(O[C@H]2O[C@H](COS(=O)(=O)[O-])[C@@H](OS(=O)(=O)[O-])[C@H](OS(=O)(=O)[O-])[C@H]2OS(=O)(=O)[O-])[C@@H](OS(=O)(=O)[O-])[C@@H]1OS(=O)(=O)[O-].[K+].[K+].[K+].[K+].[K+].[K+].[K+].[K+]` [Sucrose Octasulfate, potassium sucrose octasulfate], the Sponge [1] was 4, the hemorrhage in sponge ([2]; 10.0 mg/ml sucrose octasulfate in Hydron) was “local hemorrhage” and the “histologic appearance of sponge (granulation tissue)” value ([2]; 50 µl of Hydron containing either 1.0 mg/ml or 0.1 mg/ml sucrose octasulfate) was “formation of granulation tissue densely populated with fibroblasts and highly vascularized with new capillary growth”.
